Legend:
Assay in all cases: relative viability (nuclei count vs DMSO), 5 days (fraction); higher = more cells survive
NCI-H2228 = system: NCI-H2228
Procedure, shortened: (§1)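 Lung cancer cell lines in 1536-well plates got either a single drug or a fixed anchor-drug dose together with five library-drug doses (not always all listed) in √10 steps, by pin tool, on the day after seeding. Nuclei were counted after 5 days, and relative viability is the treated-to-vehicle ratio of nuclei counts. Values are medians of duplicate plates.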

SK-LU-1 = system: SK-LU-1
Procedure, shortened: as §1

NCI-H647 = system: NCI-H647
Procedure, shortened: as §1

NCI-H1355 = system: NCI-H1355
Procedure, shortened: as §1

LOU-NH91 = system: LOU-NH91
Procedure, shortened: as §1

HARA = system: HARA
Procedure, shortened: as §1

NCI-H2170 = system: NCI-H2170
Procedure, shortened: as §1

NCI-H1792 = system: NCI-H1792
Procedure, shortened: as §1

NCI-H1437 = system: NCI-H1437
Procedure, shortened: as §1

BEN = system: BEN
Procedure, shortened: as §1

NCI-H2009 = system: NCI-H2009
Procedure, shortened: as §1

NCI-H2405 = system: NCI-H2405
Procedure, shortened: as §1

LC-2-ad = system: LC-2-ad
Procedure, shortened: as §1

EKVX = system: EKVX
Procedure, shortened: as §1

NCI-H2087 = system: NCI-H2087
Procedure, shortened: as §1

NCI-H1734 = system: NCI-H1734
Procedure, shortened: as §1

NCI-H2342 = system: NCI-H2342
Procedure, shortened: as §1

SK-MES-1 = system: SK-MES-1
Procedure, shortened: as §1

HCC-366 = system: HCC-366
Procedure, shortened: as §1

HCC-827 = system: HCC-827
Procedure, shortened: as §1

NCI-H1395 = system: NCI-H1395
Procedure, shortened: as §1

NCI-H596 = system: NCI-H596
Procedure, shortened: as §1

NCI-H661 = system: NCI-H661
Procedure, shortened: as §1

Compound: Oc1nc(-c2ccc(C(F)(F)F)cc2)nc2c1CSCC2 [XAV939] + COc1cccc2cc(-c3nc([C@H]4CC[C@H](C(=O)O)CC4)n4ncnc(N)c34)[nH]c12 [OSI-027] (partner 0.5 µM)
- relative viability (NCI-H2228; first compound 0.08 µM): 0.704
- relative viability (NCI-H2228; first compound 0.253 µM): 0.467
- relative viability (NCI-H2228; first compound 0.8 µM): 0.479
- relative viability (NCI-H2228; first compound 2.53 µM): 0.546
- relative viability (SK-LU-1; first compound 0.08 µM): 0.387
- relative viability (SK-LU-1; first compound 0.253 µM): 0.339
- relative viability (SK-LU-1; first compound 0.8 µM): 0.394
- relative viability (SK-LU-1; first compound 2.53 µM): 0.34
- relative viability (NCI-H647; first compound 0.08 µM): 0.722
- relative viability (NCI-H647; first compound 0.253 µM): 0.46
- relative viability (NCI-H647; first compound 0.8 µM): 0.656
- relative viability (NCI-H647; first compound 2.53 µM): 0.464
- relative viability (NCI-H1355; first compound 0.08 µM): 0.396
- relative viability (NCI-H1355; first compound 0.253 µM): 0.353
- relative viability (NCI-H1355; first compound 0.8 µM): 0.368
- relative viability (NCI-H1355; first compound 2.53 µM): 0.274
- relative viability (LOU-NH91; first compound 0.08 µM): 0.701
- relative viability (LOU-NH91; first compound 0.253 µM): 0.662
- relative viability (LOU-NH91; first compound 0.8 µM): 0.69
- relative viability (LOU-NH91; first compound 2.53 µM): 0.675
- relative viability (HARA; first compound 0.08 µM): 0.436
- relative viability (HARA; first compound 0.253 µM): 0.424
- relative viability (HARA; first compound 0.8 µM): 0.3
- relative viability (HARA; first compound 2.53 µM): 0.467
- relative viability (NCI-H2170; first compound 0.08 µM): 0.749
- relative viability (NCI-H2170; first compound 0.253 µM): 0.493
- relative viability (NCI-H2170; first compound 0.8 µM): 0.643
- relative viability (NCI-H2170; first compound 2.53 µM): 0.611
- relative viability (NCI-H1792; first compound 0.08 µM): 0.82
- relative viability (NCI-H1792; first compound 0.253 µM): 0.677
- relative viability (NCI-H1792; first compound 0.8 µM): 0.839
- relative viability (NCI-H1792; first compound 2.53 µM): 0.672
- relative viability (NCI-H1437; first compound 0.08 µM): 1.03
- relative viability (NCI-H1437; first compound 0.253 µM): 0.877
- relative viability (NCI-H1437; first compound 0.8 µM): 0.89
- relative viability (NCI-H1437; first compound 2.53 µM): 0.783
- relative viability (BEN; first compound 0.08 µM): 0.28
- relative viability (BEN; first compound 0.253 µM): 0.303
- relative viability (BEN; first compound 0.8 µM): 0.314
- relative viability (BEN; first compound 2.53 µM): 0.309
- relative viability (NCI-H2009; first compound 0.08 µM): 0.676
- relative viability (NCI-H2009; first compound 0.253 µM): 0.561
- relative viability (NCI-H2009; first compound 0.8 µM): 0.507
- relative viability (NCI-H2009; first compound 2.53 µM): 0.369
- relative viability (NCI-H2405; first compound 0.08 µM): 0.605
- relative viability (NCI-H2405; first compound 0.253 µM): 0.586
- relative viability (NCI-H2405; first compound 0.8 µM): 0.611
- relative viability (NCI-H2405; first compound 2.53 µM): 0.598
- relative viability (LC-2-ad; first compound 0.08 µM): 0.907
- relative viability (LC-2-ad; first compound 0.253 µM): 0.815
- relative viability (LC-2-ad; first compound 0.8 µM): 0.889
- relative viability (LC-2-ad; first compound 2.53 µM): 0.864
- relative viability (EKVX; first compound 0.08 µM): 0.719
- relative viability (EKVX; first compound 0.253 µM): 0.686
- relative viability (EKVX; first compound 0.8 µM): 0.593
- relative viability (EKVX; first compound 2.53 µM): 0.532
- relative viability (NCI-H2087; first compound 0.08 µM): 0.833
- relative viability (NCI-H2087; first compound 0.253 µM): 0.504
- relative viability (NCI-H2087; first compound 0.8 µM): 0.444
- relative viability (NCI-H2087; first compound 2.53 µM): 0.46
- relative viability (NCI-H1734; first compound 0.08 µM): 0.632
- relative viability (NCI-H1734; first compound 0.253 µM): 0.551
- relative viability (NCI-H1734; first compound 0.8 µM): 0.575
- relative viability (NCI-H1734; first compound 2.53 µM): 0.51
- relative viability (NCI-H2342; first compound 0.08 µM): 0.596
- relative viability (NCI-H2342; first compound 0.253 µM): 0.481
- relative viability (NCI-H2342; first compound 0.8 µM): 0.531
- relative viability (NCI-H2342; first compound 2.53 µM): 0.464
- relative viability (SK-MES-1; first compound 0.08 µM): 0.576
- relative viability (SK-MES-1; first compound 0.253 µM): 0.584
- relative viability (SK-MES-1; first compound 0.8 µM): 0.631
- relative viability (SK-MES-1; first compound 2.53 µM): 0.424
- relative viability (HCC-366; first compound 0.08 µM): 0.962
- relative viability (HCC-366; first compound 0.253 µM): 0.666
- relative viability (HCC-366; first compound 0.8 µM): 1.03
- relative viability (HCC-366; first compound 2.53 µM): 0.767
- relative viability (HCC-827; first compound 0.08 µM): 0.817
- relative viability (HCC-827; first compound 0.253 µM): 0.744
- relative viability (HCC-827; first compound 0.8 µM): 0.826
- relative viability (HCC-827; first compound 2.53 µM): 0.711
- relative viability (NCI-H1395; first compound 0.08 µM): 0.656
- relative viability (NCI-H1395; first compound 0.253 µM): 0.612
- relative viability (NCI-H1395; first compound 0.8 µM): 0.556
- relative viability (NCI-H1395; first compound 2.53 µM): 0.634
- relative viability (NCI-H596; first compound 0.08 µM): 0.803
- relative viability (NCI-H596; first compound 0.253 µM): 0.796
- relative viability (NCI-H596; first compound 0.8 µM): 0.768
- relative viability (NCI-H596; first compound 2.53 µM): 0.622
- relative viability (NCI-H661; first compound 0.08 µM): 0.701
- relative viability (NCI-H661; first compound 0.253 µM): 0.719
- relative viability (NCI-H661; first compound 0.8 µM): 0.696
- relative viability (NCI-H661; first compound 2.53 µM): 0.583

Source: the supplement of paper PMC10307832
